Patent US8637525B2, “Compounds for the reduction of beta-amyloid production” (Bristol-Myers Squibb Company, priority 2009, dated 2014)
Counter-ions that a name gives are not always drawn. Like-named read-outs stand apart in the source and are kept apart here.

Test system: Aβ1-42 production
Assay: Cellular assay for inhibition of Aβ1-42 production (H4 APP751 SWE clone 8.20)
Assay type: cell-based
Conditions: H4 APP751 SWE clone 8.20 cells, 19 h incubation
Procedure, shortened: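 Aβ42 read by time-resolved FRET using neoepitope antibody 565 (0.8 ng/well) paired with N-terminal 26D6 (75 ng/well), incubated overnight at 4 °C, then IC50 curve fitting. Cells: H4 APP751 Swedish clone 8.20, exposed to compound for 19 h at 37 °C.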

[1] = class symbols, read-out: Activity Rating (Aβ42 cellular IC50)
[2] = 19 h, class symbols, read-out: Activity Rating (Aβ42 cellular IC50)
[3] = 19 h, read-out: Activity Rating (Aβ42 cellular IC50), numeric value

Row | Compound | IC50 [1] [nM] | IC50 [2] [nM] | other results
1 | COc1cc(Nc2nc3c(c(N4CCC(C(F)(F)F)C4)n2)CCC3c2ccc(F)cc2)ccc1-n1cnc(Cl)c1 (centres unmarked) [Example 41A, N-(4-(4-chloro-1H-imidazol-1-yl)-3-methoxyphenyl)-7-(4-fluorophenyl)-4-(3-(trifluoromethyl)pyrrolidin-1-yl)-6,7-dihydro-5H-cyclopenta[d]pyrimidin-2-amine] |  | 10 to 100 | 
2 | COc1cc(Nc2nc3c(c(N4CC(F)(F)C4)n2)CCC3c2ccc(OC(F)(F)F)cc2)ccc1-n1cnc(Cl)c1 (racemic) [Example 99, N-(4-(4-Chloro-1H-imidazol-1-yl)-3-methoxyphenyl)-4-(3,3-difluoroazetidin-1-yl)-7-(4-(trifluoromethoxy)phenyl)-6,7-dihydro-5H-cyclopenta[d]pyrimidin-2-amine] |  |  | IC50 [3]: 19 nM
3 | COc1cc(Nc2nc3c(c(N4CC(Cl)C4)n2)CCC3c2ccccc2)ccc1-n1cnc(Cl)c1 (centres unmarked) [Example 181B, N-(4-(4-chloro-1H-imidazol-1-yl)-3-methoxyphenyl)-4-(3-chloroazetidin-1-yl)-7-phenyl-6,7-dihydro-5H-cyclopenta[d]pyrimidin-2-amine] |  |  | IC50 [3]: 50 nM
4 | CCNc1nc(Nc2ccc(-n3cnc(C)n3)c(F)c2)nc2c1CN(S(C)(=O)=O)CC2c1ccc(F)cc1 (centres unmarked) [Example 156, N4-ethyl-N2-(3-fluoro-4-(3-methyl-1H-1,2,4-triazol-1-yl)pheny)-8-(4-fluorophenyl)-6-(methylsulfonyl)-5,6,7,8-tetrahydropyrido[4,3-d]pyrimidine-2,4-diamine] |  | 1.5 to 9.9 | 
5 | CCNc1nc(Nc2ccc(-n3cnc(Cl)c3)c(OC)c2)nc2c1CCC2c1ccc(OC(F)(F)F)cc1 (racemic) [Example 98, N^2-(4-(4-Chloro-1H-imidazol-1-yl)-3-methoxyphenyl)-N^4-ethyl-7-(4-(trifluoromethoxy)phenyl)-6,7-dihydro-5H-cyclopenta[d]pyrimidine-2,4-diamine] |  | 10 to 100 | 
6 | CNc1nc(Nc2ccc(-n3ncnc3C)c(OC)c2)nc2c1CN(C)CC2c1ccc(F)cc1 (centres unmarked) [Example 199B, 8-(4-fluorophenyl)-N2-(3-methoxy-4-(5-methyl-1H-1,2,4-triazol-1-yl)phenyl)-N4,6-dimethyl-5,6,7,8-tetrahydropyrido[4,3-d]pyrimidine-2,4-diamine] | 1.5 to 9.9 |  | 
7 | CCNc1nc(Nc2ccc(-n3cnc(Cl)c3)c(OC)c2)nc2c1CN(S(C)(=O)=O)CC2c1ccccc1 (centres unmarked) [Example 134A, N2-(4-(4-chloro-1H-imidazol-1-yl)-3-methoxyphenyl)-N4-ethyl-6-(methylsulfonyl)-8-phenyl-5,6,7,8-tetrahydropyrido[4,3-d]pyrimidine-2,4-diamine] |  |  | IC50 [3]: 3.6 nM
8 | COc1cc(Nc2nc(NC3CC3)c3c(n2)C(c2ccccc2)CC3)ccc1-n1cnc(Cl)c1 (centres unmarked) [Example 8, N2-(4-(4-chloro-1H-imidazol-1-yl)-3-methoxyphenyl)-N4-cyclopropyl-7-phenyl-6,7-dihydro-5H-cyclopenta[d]pyrimidine-2,4-diamine] |  | 1.5 to 9.9 | 
9 | CCNc1nc(Nc2ccc(-n3cnc(Cl)c3)c(OC)c2)nc2c1CCC2c1ccc(OC(F)(F)F)cc1 (single isomer, unassigned) [Example 98A, N^2-(4-(4-Chloro-1H-imidazol-1-yl)-3-methoxyphenyl)-N^4-ethyl-7-(4-(trifluoromethoxy)phenyl)-6,7-dihydro-5H-cyclopenta[d]pyrimidine-2,4-diamine] | 1.5 to 9.9 |  | 
10 | CNc1nc(Nc2ccc(-n3cnc(Cl)c3)c(OC)c2)nc2c1COCC2c1ccc(C(F)(F)F)cc1 (racemic) [Example 120, N2-(4-(4-chloro-1H-imidazol-1-yl)-3-methoxyphenyl)-N4-methyl-8-(4-(trifluoromethyl)phenyl)-7,8-dihydro-5H-pyrano[4,3-d]pyrimidine-2,4-diamine, TFA] |  | 10 to 100 | 
11 | CCNc1nc(Nc2ccc(-n3cnc(Cl)c3)c(OC)c2)nc2c1CN(C(=O)C1CC1)CC2c1ccccc1 (centres unmarked) [Example 132A, (2-(4-(4-chloro-1H-imidazol-1-yl)-3-methoxyphenylamino)-4-(ethylamino)-8-phenyl-7,8-dihydropyrido[4,3-d]pyrimidin-6(5H)-yl)(cyclopropyl)methanone] |  |  | IC50 [3]: 15 nM
12 | CNc1nc(Nc2ccc(-n3cnc(C)n3)c(OC)c2)nc2c1CN(C)CC2c1ccc(F)cc1 (single isomer, unassigned) [Example 198A, 8-(4-fluorophenyl)-N2-(3-methoxy-4-(3-methyl-1H-1,2,4-triazol-1-yl)phenyl)-N4,6-dimethyl-5,6,7,8-tetrahydropyrido[4,3-d]pyrimidine-2,4-diamine] | 100 to 1000 |  | 

Second part, led by results:

Row | IC50 [1] [nM] | IC50 [2] [nM] | Compound | other results
13 | 10 to 100 |  | CCNc1nc(Nc2ccc(-n3cnc(Cl)c3)c(OC)c2)nc2c1CCN(C(=O)OC)C2c1ccc(F)cc1 (centres unmarked) [Example 170, methyl 2-(4-(4-chloro-1H-imidazol-1-yl)-3-methoxyphenylamino)-4-(ethylamino)-8-(4-fluorophenyl)-5,6-dihydropyrido[3,4-d]pyrimidine-7(8H)-carboxylate] | 
14 | 1.5 to 9.9 |  | CCN(C)c1nc(Nc2ccc(-n3cnc(Cl)c3)c(OC)c2)nc2c1CCN(S(C)(=O)=O)C2c1ccc(F)cc1 (centres unmarked) [Example 172A, N2-(4-(4-chloro-1H-imidazol-1-yl)-3-methoxyphenyl)-N4-ethyl-8-(4-fluorophenyl)-N4-methyl-7-(methylsulfonyl)-5,6,7,8-tetrahydropyrido[3,4-d]pyrimidine-2,4-diamine] | 
15 |  | 10 to 100 | CNc1nc(Nc2ccc(-n3cnc(C)n3)c(OC)c2)nc2c1CC[C@H]2c1cccc(OC)c1 (single isomer, unassigned) [Example 272A] | 
16 | 1.5 to 9.9 |  | COc1cc(Nc2nc3c(c(N4CC(OC)C4)n2)CCC3c2ccccc2)ccc1-n1cnc(Cl)c1 (single isomer, unassigned) [Example 183A, N-(4-(4-chloro-1H-imidazol-1-yl)-3-methoxyphenyl)-4-(3-methoxyazetidin-1-yl)-7-phenyl-6,7-dihydro-5H-cyclopenta[d]pyrimidin-2-amine] | 
17 |  | 1.5 to 9.9 | COc1cc(Nc2nc3c(c(N(C)C)n2)CCC3c2ccc(OC(F)(F)F)cc2)ccc1-n1cnc(Cl)c1 (racemic) [Example 100, N^2-(4-(4-Chloro-1H-imidazol-1-yl)-3-methoxyphenyl)-N^4,N^4-dimethyl-7-(4-(trifluoromethoxy)phenyl)-6,7-dihydro-5H-cyclopenta[d]pyrimidine-2,4-diamine] | 
18 |  | 10 to 100 | COc1cc(Nc2nc3c(c(N4CCC(F)(F)C4)n2)CCC3c2cc(F)c(F)c(F)c2)ccc1-n1cnc(Cl)c1 (racemic) [Example 107, N-(4-(4-Chloro-1H-imidazol-1-yl)-3-methoxyphenyl)-4-(3,3-difluoropyrrolidin-1-yl)-7-(3,4,5-trifluorophenyl)-6,7-dihydro-5H-cyclopenta[d]pyrimidin-2-amine] | 
19 |  | 10 to 100 | COc1cc(Nc2nc3c(c(N4C[C@@H](C)O[C@@H](C)C4)n2)CCC3c2ccc(F)cc2)ccc1-n1cnc(Cl)c1 (some centres unmarked) [Example 21] | 
20 | 10 to 100 |  | CCNc1nc(Nc2ccc(-n3cnc(Cl)c3)c(OC)c2)nc2c1CCC2c1ccc(OC(F)(F)F)cc1 (single isomer, unassigned) [Example 98B, N^2-(4-(4-Chloro-1H-imidazol-1-yl)-3-methoxyphenyl)-N^4-ethyl-7-(4-(trifluoromethoxy)phenyl)-6,7-dihydro-5H-cyclopenta[d]pyrimidine-2,4-diamine] | 
